Test results taken from paper PMC5808195 (Frontiers in Pharmacology, 2018).
Counter-ions that a name gives are not always drawn. Like-named read-outs stand apart in the source and are kept apart here.

Tests used:
[1] = biological target: T1, rat cerebral neuronal membranes (histamine H1 binding sites) (Rattus norvegicus, UniProt P31390); assay: Competitive displacement of [^3H]pyrilamine binding, rat cerebral neuronal membranes; conditions: for displacement of specific [^3H]pyrilamine binding (in words): rat cerebral neuronal membranes, 20 nM [^3H]pyrilamine
T1 construct: native receptors contained in rat cerebral neuronal membranes; from tissue; host or cells: cerebral tissue of male Wistar rats, membrane fraction (40,000 x g pellet)

[2] = biological target: T2, synthesized WT-HRH1 proteoglycerosomes (Homo sapiens, UniProt P35367); assay: biochemical
Description: (§1) Eight different concentrations of each cold competitor were used in the competitive binding studies. […] The data are based on experiments performed in triplicate. The experimental conditions were the same as those used in the saturation studies.

[3] = biological target: T2, synthesized WT-HRH1 proteoglycerosomes
Description: as §1

T1 sequence (P31390 whole entry): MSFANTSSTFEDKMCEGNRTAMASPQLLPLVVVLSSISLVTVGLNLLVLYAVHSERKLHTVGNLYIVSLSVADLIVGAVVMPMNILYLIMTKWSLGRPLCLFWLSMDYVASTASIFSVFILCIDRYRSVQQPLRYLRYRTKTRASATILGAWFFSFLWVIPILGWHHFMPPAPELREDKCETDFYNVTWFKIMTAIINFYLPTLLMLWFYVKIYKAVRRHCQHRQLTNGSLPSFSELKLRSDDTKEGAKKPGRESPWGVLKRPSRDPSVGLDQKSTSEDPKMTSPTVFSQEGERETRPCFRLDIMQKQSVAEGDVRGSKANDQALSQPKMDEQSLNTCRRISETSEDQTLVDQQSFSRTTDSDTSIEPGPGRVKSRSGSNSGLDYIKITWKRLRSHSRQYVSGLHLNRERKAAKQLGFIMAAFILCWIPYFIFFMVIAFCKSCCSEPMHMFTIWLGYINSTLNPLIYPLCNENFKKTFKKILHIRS
T2 sequence (P35367 whole entry): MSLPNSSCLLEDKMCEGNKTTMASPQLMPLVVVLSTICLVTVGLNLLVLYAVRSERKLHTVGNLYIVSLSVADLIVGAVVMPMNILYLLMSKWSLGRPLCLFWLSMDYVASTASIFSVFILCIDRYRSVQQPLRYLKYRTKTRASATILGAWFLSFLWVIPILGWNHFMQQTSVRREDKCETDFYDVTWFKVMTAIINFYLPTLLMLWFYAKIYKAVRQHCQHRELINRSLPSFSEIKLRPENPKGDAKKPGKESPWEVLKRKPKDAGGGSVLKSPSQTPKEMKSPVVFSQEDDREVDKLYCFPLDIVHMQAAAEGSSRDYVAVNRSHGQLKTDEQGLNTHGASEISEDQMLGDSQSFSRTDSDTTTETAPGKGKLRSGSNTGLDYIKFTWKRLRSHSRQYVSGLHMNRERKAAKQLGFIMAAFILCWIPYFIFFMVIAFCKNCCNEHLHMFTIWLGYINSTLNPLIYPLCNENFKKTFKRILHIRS

SMILES	Ki [1] [nM]	displacement of specific [^3H]pyrilamine binding (in words) [1]	Ki [2] [nM]	displacement of specific [^3H]pyrilamine binding (in words) ([3]; synthesized receptors, 20 nM [^3H]pyrilamine)	displacement of specific [^3H]pyrilamine binding (in words) [3]
NC1=NCC2c3ccccc3Cc3ccccc3N12 (centres unmarked) [Epinastine, epinastine hydrochloride]	0.288 ± 0.0615	concentration-dependent inhibition	0.332 ± 0.0989	concentration-dependent inhibition	–
S=C(NC1CCCCC1)N1CCC(c2cnc[nH]2)CC1 [thioperamide]	–	no displacement ability	–	–	no displacement ability
C[C@@H](N)Cc1cnc[nH]1 [alpha methylhistamine, alpha-methylhistamine]	–	did not inhibit	–	–	did not inhibit
